# Tests used:
# [1] = test system: Tyrosine-protein kinase ABL1 (Homo sapiens), P00519 [Q252H]; test: Binding affinity to human phosphorylated ABL1 Q252H mutant expressed in mammalian expression system assessed as residual binding level at 10 uM by Kinomescan method relative to control
# [2] = target: Atypical kinase COQ8B, mitochondrial (Homo sapiens) (UniProt Q96D53); test: Binding affinity to wild-type human full length ADCK4 (M1 to S544 residues) expressed in bacterial expression system assessed as residual binding level at 10 uM by Kinomescan method relative to control
# [3] = target: RAC-beta serine/threonine-protein kinase (Homo sapiens) (UniProt P31751); test: Binding affinity to wild-type human partial length AKT2 expressed in bacterial expression system assessed as residual binding level at 10 uM by Kinomescan method relative to control
# [4] = test system: ALK tyrosine kinase receptor (Homo sapiens), Q9UM73 [C1156Y]; test: Binding affinity to wild-type human partial length ALK C1156Y mutant (I1088 to E1409 residues) expressed in mammalian expression system assessed as residual binding level at 10 uM by Kinomescan method relative to control
# [5] = target: Calcium/calmodulin-dependent protein kinase type II subunit alpha (Homo sapiens) (UniProt Q9UQM7); test: Binding affinity to wild-type human partial length CAMK2A (M1 to K328 residues) expressed in bacterial expression system assessed as residual binding level at 10 uM by Kinomescan method relative to control
# [6] = target: Tyrosine-protein kinase CSK (Homo sapiens) (UniProt P41240); test: Binding affinity to wild-type human full length CSK (M1 to L450 residues) expressed in bacterial expression system assessed as residual binding level at 10 uM by Kinomescan method relative to control
# [7] = target: Casein kinase I isoform delta (Homo sapiens) (UniProt P48730); test: Binding affinity to wild-type human full length CSNK1D (M1 to K409 residues) expressed in bacterial expression system assessed as residual binding level at 10 uM by Kinomescan method relative to control
# [8] = test system: Epidermal growth factor receptor (Homo sapiens), P00533 [G719S]; test: Binding affinity to human partial length EGFR G719S mutant (R669 to V1011 residues) expressed in bacterial expression system assessed as residual binding level at 10 uM by Kinomescan method relative to control
# [9] = target: Mitogen-activated protein kinase 7 (Homo sapiens) (UniProt Q13164); test: Binding affinity to wild-type human partial length ERK5 (M1 to A409 residues) expressed in bacterial expression system assessed as residual binding level at 10 uM by Kinomescan method relative to control
# [10] = target: Vascular endothelial growth factor receptor 1 (Homo sapiens) (UniProt P17948); test: Binding affinity to wild-type human partial length FLT1 (R781 to F1239 residues) expressed in bacterial expression system assessed as residual binding level at 10 uM by Kinomescan method relative to control
# [11] = test system: eIF-2-alpha kinase GCN2 (Homo sapiens), Q9P2K8 [S808G]; test: Binding affinity to wild-type human partial length GCN2 kinase domain 2 (R585 to T1018 residues) S808G mutant expressed in bacterial expression system assessed as residual binding level at 10 uM by Kinomescan method relative to control
# [12] = target: Beta-adrenergic receptor kinase 1 (Homo sapiens) (UniProt P25098); test: Binding affinity to wild-type human full length GRK2 (M1 to L689 residues) expressed in mammalian expression system assessed as residual binding level at 10 uM by Kinomescan method relative to control
# [13] = target: Rhodopsin kinase GRK7 (Homo sapiens) (UniProt Q8WTQ7); test: Binding affinity to wild-type human full length GRK7 (M1 to L553 residues) expressed in mammalian expression system assessed as residual binding level at 10 uM by Kinomescan method relative to control
# [14] = target: Mitogen-activated protein kinase 9 (Homo sapiens) (UniProt P45984); test: Binding affinity to wild-type human full length JNK2 (M1 to Q382 residues) expressed in mammalian expression system assessed as residual binding level at 10 uM by Kinomescan method relative to control
# [15] = target: Mast/stem cell growth factor receptor Kit (Homo sapiens) (UniProt P10721); test: Binding affinity to wild-type human partial length autoinhibited KIT (Y545 to D952 residues) expressed in mammalian expression system assessed as residual binding level at 10 uM by Kinomescan method relative to control
# [16] = target: Serine/threonine-protein kinase LATS2 (Homo sapiens) (UniProt Q9NRM7); test: Binding affinity to wild-type human partial length LATS2 (Q641 to V1088 residues) expressed in mammalian expression system assessed as residual binding level at 10 uM by Kinomescan method relative to control
# [17] = target: Serine/threonine-protein kinase Nek4 (Homo sapiens) (UniProt P51957); test: Binding affinity to wild-type human full length NEK4 (M1 to F841 residues) expressed in mammalian expression system assessed as residual binding level at 10 uM by Kinomescan method relative to control
# [18] = target: Serine/threonine-protein kinase PAK 6 (Homo sapiens) (UniProt Q9NQU5); test: Binding affinity to wild-type human partial length PAK6 (N298 to C681 residues) expressed in bacterial expression system assessed as residual binding level at 10 uM by Kinomescan method relative to control
# [19] = target: cAMP-dependent protein kinase catalytic subunit alpha (Homo sapiens) (UniProt P17612); test: Binding affinity to wild-type human partial length PKAC-alpha (G10 to F351 residues) expressed in bacterial expression system assessed as residual binding level at 10 uM by Kinomescan method relative to control
# [20] = target: Serine/threonine-protein kinase PLK2 (Homo sapiens) (UniProt Q9NYY3); test: Binding affinity to wild-type human partial length PLK2 (H58 to F354 residues) expressed in mammalian expression system assessed as residual binding level at 10 uM by Kinomescan method relative to control
# [21] = test system: Proto-oncogene tyrosine-protein kinase receptor Ret (Homo sapiens), P07949 [V804M]; test: Binding affinity to human partial length RET V804M mutant (E713 to D1014 residues) expressed in bacterial expression system assessed as residual binding level at 10 uM by Kinomescan method relative to control
# [22] = target: Serine/threonine-protein kinase SIK1 (Homo sapiens) (UniProt P57059); test: Binding affinity to wild-type human partial length SIK (M1 to Y304 residues) expressed in bacterial expression system assessed as residual binding level at 10 uM by Kinomescan method relative to control
# [23] = target: Non-receptor tyrosine-protein kinase TNK1 (Homo sapiens) (UniProt Q13470); test: Binding affinity to wild-type human full length TNK1 (M1 to P661 residues) expressed in bacterial expression system assessed as residual binding level at 10 uM by Kinomescan method relative to control
# [24] = target: Tyrosine-protein kinase receptor TYRO3 (Homo sapiens) (UniProt Q06418); test: Binding affinity to wild-type human partial length TYRO3 (S497 to T814 residues) expressed in bacterial expression system assessed as residual binding level at 10 uM by Kinomescan method relative to control
# [25] = target: Glycogen synthase kinase-3 (Sus scrofa, UniProt B2LUN4+I6LNT8)
# Description: Inhibition of native porcine brain GSK-3alpha/beta using GS-1 as substrate incubated for 30 mins in presence of [gamma-33P]ATP by liquid scintillation counting assay
# Sequence of Calcium/calmodulin-dependent protein kinase type II subunit alpha (Homo sapiens) (Q9UQM7 whole entry, the tested form may be a part): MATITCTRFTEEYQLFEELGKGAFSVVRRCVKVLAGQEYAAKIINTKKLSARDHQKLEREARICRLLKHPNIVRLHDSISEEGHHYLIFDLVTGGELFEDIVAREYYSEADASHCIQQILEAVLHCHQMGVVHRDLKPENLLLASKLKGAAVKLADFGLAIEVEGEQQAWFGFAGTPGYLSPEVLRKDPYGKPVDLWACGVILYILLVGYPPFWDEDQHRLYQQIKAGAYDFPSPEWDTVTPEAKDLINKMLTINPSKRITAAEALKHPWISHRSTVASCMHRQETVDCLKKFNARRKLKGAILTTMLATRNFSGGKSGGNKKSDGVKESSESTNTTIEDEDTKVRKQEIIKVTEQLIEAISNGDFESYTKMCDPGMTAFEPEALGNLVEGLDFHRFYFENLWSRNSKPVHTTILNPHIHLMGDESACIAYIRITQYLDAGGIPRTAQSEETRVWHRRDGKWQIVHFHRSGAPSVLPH
# Sequence of Serine/threonine-protein kinase Nek4 (Homo sapiens) (P51957 whole entry, looked up, the tested form may be a part): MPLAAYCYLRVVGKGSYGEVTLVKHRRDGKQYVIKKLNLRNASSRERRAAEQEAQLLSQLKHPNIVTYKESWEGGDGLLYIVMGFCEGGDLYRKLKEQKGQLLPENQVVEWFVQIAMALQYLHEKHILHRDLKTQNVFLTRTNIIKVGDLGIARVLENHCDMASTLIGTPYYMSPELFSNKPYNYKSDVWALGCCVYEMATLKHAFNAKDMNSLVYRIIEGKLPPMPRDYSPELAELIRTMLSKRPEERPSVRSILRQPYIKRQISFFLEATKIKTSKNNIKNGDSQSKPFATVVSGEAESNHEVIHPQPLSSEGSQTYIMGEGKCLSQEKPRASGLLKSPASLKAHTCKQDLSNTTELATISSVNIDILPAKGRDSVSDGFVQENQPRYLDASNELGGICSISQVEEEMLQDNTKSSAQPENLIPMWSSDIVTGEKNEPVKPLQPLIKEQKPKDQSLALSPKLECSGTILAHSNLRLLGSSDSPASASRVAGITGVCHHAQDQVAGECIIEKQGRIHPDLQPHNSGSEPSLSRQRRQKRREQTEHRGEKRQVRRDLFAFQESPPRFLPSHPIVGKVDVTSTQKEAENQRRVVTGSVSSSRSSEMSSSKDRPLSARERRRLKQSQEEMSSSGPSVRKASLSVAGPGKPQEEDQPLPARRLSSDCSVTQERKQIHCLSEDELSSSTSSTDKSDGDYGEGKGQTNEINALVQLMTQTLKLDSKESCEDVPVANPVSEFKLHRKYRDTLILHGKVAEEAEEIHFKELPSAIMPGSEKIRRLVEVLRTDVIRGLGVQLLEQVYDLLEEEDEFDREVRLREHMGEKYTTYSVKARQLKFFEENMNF
# Sequence of Casein kinase I isoform delta (Homo sapiens) (P48730 whole entry, looked up, the tested form may be a part, canonical isoform): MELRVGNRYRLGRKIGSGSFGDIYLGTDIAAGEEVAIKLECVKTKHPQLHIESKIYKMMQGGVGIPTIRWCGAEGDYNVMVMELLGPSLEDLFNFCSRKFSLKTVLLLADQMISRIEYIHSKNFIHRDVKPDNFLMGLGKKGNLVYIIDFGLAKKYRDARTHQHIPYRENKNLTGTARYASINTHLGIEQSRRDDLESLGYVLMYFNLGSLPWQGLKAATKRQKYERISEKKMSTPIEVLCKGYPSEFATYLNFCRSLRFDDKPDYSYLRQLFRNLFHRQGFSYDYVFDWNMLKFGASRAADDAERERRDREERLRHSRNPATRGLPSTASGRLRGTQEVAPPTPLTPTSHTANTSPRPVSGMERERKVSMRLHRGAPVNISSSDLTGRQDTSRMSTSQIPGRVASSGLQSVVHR
# Sequence of Serine/threonine-protein kinase PAK 6 (Homo sapiens) (Q9NQU5 whole entry, looked up, the tested form may be a part): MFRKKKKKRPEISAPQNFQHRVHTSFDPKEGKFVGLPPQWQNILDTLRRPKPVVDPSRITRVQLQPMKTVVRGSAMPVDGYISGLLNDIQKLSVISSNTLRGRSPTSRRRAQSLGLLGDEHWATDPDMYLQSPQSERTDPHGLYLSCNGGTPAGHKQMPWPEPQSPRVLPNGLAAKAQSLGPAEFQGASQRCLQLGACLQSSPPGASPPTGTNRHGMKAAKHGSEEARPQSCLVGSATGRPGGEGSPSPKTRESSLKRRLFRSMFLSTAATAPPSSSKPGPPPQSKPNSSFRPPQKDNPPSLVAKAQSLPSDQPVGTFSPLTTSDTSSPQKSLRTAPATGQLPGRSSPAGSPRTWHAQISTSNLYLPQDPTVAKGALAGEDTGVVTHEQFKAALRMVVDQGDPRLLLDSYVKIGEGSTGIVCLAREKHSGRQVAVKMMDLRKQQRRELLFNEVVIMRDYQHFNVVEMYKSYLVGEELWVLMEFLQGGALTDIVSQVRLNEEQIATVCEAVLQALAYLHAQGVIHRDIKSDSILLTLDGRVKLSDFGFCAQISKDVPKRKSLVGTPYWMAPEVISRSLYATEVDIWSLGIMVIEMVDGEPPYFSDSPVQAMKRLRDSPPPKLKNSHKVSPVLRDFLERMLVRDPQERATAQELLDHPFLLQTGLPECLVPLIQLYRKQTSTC
# Sequence of Mast/stem cell growth factor receptor Kit (Homo sapiens) (P10721 whole entry, the tested form may be a part): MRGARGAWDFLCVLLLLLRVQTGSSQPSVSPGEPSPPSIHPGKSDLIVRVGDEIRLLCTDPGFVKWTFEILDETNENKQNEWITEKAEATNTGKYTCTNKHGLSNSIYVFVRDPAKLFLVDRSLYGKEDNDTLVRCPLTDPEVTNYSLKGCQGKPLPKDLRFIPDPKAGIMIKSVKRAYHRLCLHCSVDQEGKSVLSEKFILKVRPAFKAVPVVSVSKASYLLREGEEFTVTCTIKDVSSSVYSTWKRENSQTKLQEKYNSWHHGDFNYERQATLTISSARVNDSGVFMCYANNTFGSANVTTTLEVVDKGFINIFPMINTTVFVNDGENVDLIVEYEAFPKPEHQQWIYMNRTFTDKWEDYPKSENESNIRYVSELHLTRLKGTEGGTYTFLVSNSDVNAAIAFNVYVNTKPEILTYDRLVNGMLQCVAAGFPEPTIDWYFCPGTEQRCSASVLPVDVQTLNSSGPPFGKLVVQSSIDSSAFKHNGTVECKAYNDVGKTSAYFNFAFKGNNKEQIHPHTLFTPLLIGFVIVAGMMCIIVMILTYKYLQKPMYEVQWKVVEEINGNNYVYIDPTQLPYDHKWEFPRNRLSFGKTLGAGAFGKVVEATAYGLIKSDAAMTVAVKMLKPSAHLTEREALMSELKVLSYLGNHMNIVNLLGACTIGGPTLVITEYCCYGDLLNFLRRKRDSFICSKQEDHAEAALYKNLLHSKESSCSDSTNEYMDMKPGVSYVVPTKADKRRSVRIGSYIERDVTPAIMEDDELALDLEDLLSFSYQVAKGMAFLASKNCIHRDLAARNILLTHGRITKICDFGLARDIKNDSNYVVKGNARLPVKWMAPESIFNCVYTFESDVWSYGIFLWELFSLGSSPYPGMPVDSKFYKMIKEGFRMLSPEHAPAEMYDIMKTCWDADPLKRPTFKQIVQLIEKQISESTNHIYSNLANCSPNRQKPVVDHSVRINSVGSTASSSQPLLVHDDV
# Sequence of Proto-oncogene tyrosine-protein kinase receptor Ret (Homo sapiens), P07949 [V804M] (P07949 whole entry V804M, the tested form may be a part): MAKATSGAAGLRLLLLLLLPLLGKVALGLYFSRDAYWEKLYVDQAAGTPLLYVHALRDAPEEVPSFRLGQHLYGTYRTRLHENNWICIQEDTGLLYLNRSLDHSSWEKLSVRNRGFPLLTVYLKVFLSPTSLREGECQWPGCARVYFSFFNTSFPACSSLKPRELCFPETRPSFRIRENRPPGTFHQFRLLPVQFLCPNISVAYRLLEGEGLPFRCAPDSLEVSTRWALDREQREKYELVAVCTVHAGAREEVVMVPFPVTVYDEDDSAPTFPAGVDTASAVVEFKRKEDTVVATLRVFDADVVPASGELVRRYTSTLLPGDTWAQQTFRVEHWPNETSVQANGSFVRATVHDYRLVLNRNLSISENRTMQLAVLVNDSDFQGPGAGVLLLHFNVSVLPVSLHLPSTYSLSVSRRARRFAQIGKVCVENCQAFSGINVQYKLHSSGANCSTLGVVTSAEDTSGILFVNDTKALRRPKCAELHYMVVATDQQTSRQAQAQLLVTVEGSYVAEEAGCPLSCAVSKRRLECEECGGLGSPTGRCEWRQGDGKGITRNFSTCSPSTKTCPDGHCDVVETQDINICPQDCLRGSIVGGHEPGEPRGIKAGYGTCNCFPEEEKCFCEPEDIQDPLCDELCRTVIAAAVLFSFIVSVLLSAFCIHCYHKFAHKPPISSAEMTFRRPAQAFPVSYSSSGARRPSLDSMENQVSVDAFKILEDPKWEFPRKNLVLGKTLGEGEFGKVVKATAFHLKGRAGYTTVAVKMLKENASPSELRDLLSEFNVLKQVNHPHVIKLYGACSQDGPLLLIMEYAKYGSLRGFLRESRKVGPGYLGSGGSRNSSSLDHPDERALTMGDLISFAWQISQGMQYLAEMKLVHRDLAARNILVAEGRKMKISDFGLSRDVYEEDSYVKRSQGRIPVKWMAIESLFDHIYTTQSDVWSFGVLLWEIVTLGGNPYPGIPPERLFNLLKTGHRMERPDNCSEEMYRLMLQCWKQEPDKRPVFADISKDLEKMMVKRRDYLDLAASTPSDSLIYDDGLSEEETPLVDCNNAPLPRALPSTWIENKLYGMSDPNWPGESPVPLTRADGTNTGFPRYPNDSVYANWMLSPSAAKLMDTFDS
# Sequence of Rhodopsin kinase GRK7 (Homo sapiens) (Q8WTQ7 whole entry, the tested form may be a part): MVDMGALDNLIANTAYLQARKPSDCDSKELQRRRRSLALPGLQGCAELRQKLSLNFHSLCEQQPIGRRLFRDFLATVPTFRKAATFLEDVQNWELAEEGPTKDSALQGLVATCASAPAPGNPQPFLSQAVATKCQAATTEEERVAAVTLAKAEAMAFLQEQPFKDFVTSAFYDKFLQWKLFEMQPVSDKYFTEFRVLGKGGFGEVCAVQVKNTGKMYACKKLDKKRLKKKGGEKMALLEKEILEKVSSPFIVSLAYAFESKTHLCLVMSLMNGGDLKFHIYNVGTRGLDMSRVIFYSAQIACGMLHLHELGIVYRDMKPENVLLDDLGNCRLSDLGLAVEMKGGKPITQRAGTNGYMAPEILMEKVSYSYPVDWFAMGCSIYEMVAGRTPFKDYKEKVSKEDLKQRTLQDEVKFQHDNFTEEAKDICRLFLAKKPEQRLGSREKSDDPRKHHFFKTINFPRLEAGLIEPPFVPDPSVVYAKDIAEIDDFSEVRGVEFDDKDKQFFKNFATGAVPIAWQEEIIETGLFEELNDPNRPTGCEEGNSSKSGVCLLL
structure (smiles),measurement,setting,value
O=C(Nc1cc(-c2cn(CCNc3c4c(nc5ccccc35)CCCC4)nn2)ccn1)Nc1cccc2c1C1CCCCN1C2=O (racemic),Activity,[1],1.4%
same,Activity,[2],77%
same,Activity,[3],80%
same,Activity,[4],100%
same,Activity,[5],79%
same,Activity,[6],77%
same,Activity,[7],2.8%
same,Activity,[8],94%
same,Activity,[9],57%
same,Activity,[10],1.6%
same,Activity,[11],75%
same,Activity,[12],100%
same,Activity,[13],61%
same,Activity,[14],2.6%
same,Activity,[15],7%
same,Activity,[16],65%
same,Activity,[17],98%
same,Activity,[18],66%
same,Activity,[19],100%
same,Activity,[20],80%
same,Activity,[21],13%
same,Activity,[22],73%
same,Activity,[23],48%
same,Activity,[24],96%
same,IC50,[25],16 nM
